Reference: patent US20100068198A1, “TARGETING OF ALPHA-1 OR ALPHA-3 SUBUNIT OF NA+, K+-ATPASE IN THE TREATMENT OF PROLIFERATIVE DISEASES” (priority 2006, published 2010)
Read-outs that look alike come from different tables or passages of the source.

Legend:
[1] = test system: four human NSCLC cell lines; format: cell-based; conditions: three days, FIG. 6A
[2] = target: T1, α1β1 Na+/K+-ATPase (Rattus norvegicus, UniProt P06685); experiment: Na+,K+-ATPase activity assay on homogenates of Sf-9 cells expressing α1β1 isozyme (32Pi release from ATP); format: biochemical
T1 construct: made in house; host or cells: Sf-9 insect cells, baculovirus
Experimental: Samples were preincubated with the inhibitor for 10 min. The assay was started by the addition of ATP with 0.2 μCi γ[32P]-ATP (2 mM final concentration). […] Released 32Pi-Pi was converted into phosphomolybdate and extracted with isobutanol. The radioactivity in 150 μl of the organic phase was measured by liquid scintillation counting.

[3] = test system: α1β1, α2β1 and α3β1 Na,K-ATPases; experiment: Na+,K+-ATPase activity assay on Sf-9 homogenates, statements for all isozymes together; format: biochemical
Experimental: Na^+,K^+-ATPase activity was assayed on homogenates of Sf-9 cells expressing the α1β1, α2β1 and α3β1 isozymes. The initial rate of release of ^32Pi from γ[^32P]-ATP was measured. The ATPase activity of 30-40 μg total protein samples was measured in a final volume of 0.25 ml in a medium containing 120 mM NaCl, 30 mM KCl, 3 mM MgCl2, 0.2 mM EGTA, 30 mM Tris-HCl (pH 7.4)±particular concentrations of a tested agent, e.g., herein compound 2.
Samples were preincubated with the inhibitor for 10 min. The assay was started by the addition of ATP with 0.2 μCi γ[32P]-ATP (2 mM final concentration). Following 30 min incubation at 37° C. the tubes were placed on ice, and the reaction was terminated by the addition of 25 μL of 55% trichloroacetic acid. Released 32Pi-Pi was converted into phosphomolybdate and extracted with isobutanol. The radioactivity in 150 μl of the organic phase was measured by liquid scintillation counting. […] The specific activity was therefore determined as the difference in ATP hydrolysis in the presence and absence of 0.0001 M compound 2.
To determine the effect of compound 2 on the activity of the Na^+/K^+-ATPase and its various isozymes, α1β1, α2β1 and α3β1 sodium pump complexes were produced using the baculovirus expression system and dose-response curves to the compound were performed. […]

[4] = target: T2, α2β1 Na+/K+-ATPase (Rattus norvegicus, UniProt P06686); experiment: Na+,K+-ATPase activity assay on homogenates of Sf-9 cells expressing α2β1 isozyme (32Pi release from ATP); format: biochemical
T2 construct: made in house; host or cells: Sf-9 insect cells, baculovirus

[5] = test system: C6 rat glioma, MXT mouse mammary carcinoma and mouse B16F10 melanoma cell lines; experiment: In vitro anti-tumour effect on three rodent cancer cell lines; format: cell-based; conditions: high doses (10 μM), FIG. 6B
Text: We also made use of three murine cell lines, i.e., three cancer cell lines including the C6 rat glioma, the MXT mouse mammary adenocarcinomas and the mouse B16F10 melanoma models.
Then, we made use of three rodent cancer cell lines, i.e. the C6 rat glioma, the MXT mouse […] mammary carcinoma and the mouse B16F10 melanoma models.

[6] = target: T3, α3β1 Na+/K+-ATPase (Rattus norvegicus, UniProt P06687); experiment: Na+,K+-ATPase activity assay on homogenates of Sf-9 cells expressing α3β1 isozyme (32Pi release from ATP); format: biochemical
T3 construct: made in house; host or cells: Sf-9 insect cells, baculovirus

[7] = target: T1, α1β1 Na+/K+-ATPase; conditions: Table 4A, from Blanco et al. 2005; read-out: inhibition constant (Ki) α1β1; cited from earlier work

For `C[C@@H]1CC2(NC(=O)CS2)[C@]2(O)O[C@@H]3C[C@]4(CO)C5CC[C@]6(C)[C@@H](C7=CC(=O)OC7)CC[C@]6(O)[C@@H]5CC[C@H]4C[C@H]3O[C@@H]2O1` (stereo partly shown) [Compound 2], the “impairment of global growth (rank among four cardenolides)” value (“impairment of global growth” for short) [1] was “strongest”, the Ki ([2]; Sf-9 expressed α1β1, Table 4A, read-out: inhibition constant (Ki) α1β1) was 160 ± 70 nM and the “potency of α1β1 inhibition relative to ouabain” value ([2]; ratio of Ki versus ouabain) was “approximately 100 times”. For the same compound, the “ATPase activity at 0.0001 M compound versus 0.001 M ouabain” value ([3]; 0.0001 M compound 2) was “comparable to that obtained with 0.001 M ouabain”, the “effect on Na,K-ATPase isozymes” value ([3]; all α1β1, α2β1 and α3β1) was “inhibitory effect” and the Ki [4] was 15 ± 8 nM. For the same compound, the “anti-tumor effects in rodent cancer cell lines” value [5] was “displays actual anti-tumor effects” and the Ki [6] was 3.2 ± 3.4 nM.

In the case of `C[C@H]1O[C@@H](O[C@H]2[C@@H](O)C[C@H](O[C@H]3[C@@H](O)C[C@H](O[C@H]4CC[C@@]5(C)[C@H](CC[C@@H]6[C@@H]5C[C@@H](O)[C@]5(C)[C@@H](C7=CC(=O)OC7)CC[C@]65O)C4)O[C@@H]3C)O[C@@H]2C)C[C@H](O)[C@@H]1O` [Digoxin, reference compound], the “impairment of global growth” value [1] is reported as “weakest” and the Ki [2] is reported as 930 ± 410 nM.

For `C[C@@H]1O[C@@H](O[C@H]2C[C@@H](O)[C@]3(CO)[C@H]4[C@H](O)C[C@]5(C)[C@@H](C6=CC(=O)OC6)CC[C@]5(O)[C@@H]4CC[C@]3(O)C2)[C@H](O)[C@H](O)[C@H]1O` [Ouabain], the “impairment of global growth” value [1] is listed as “digoxin<digitoxin<ouabain<Compound 2” and the Ki [7] is listed as 43000 ± 19000 nM.

For `C[C@H]1O[C@@H](O[C@H]2[C@@H](O)C[C@H](O[C@H]3[C@@H](O)C[C@H](O[C@H]4CC[C@@]5(C)[C@H](CC[C@@H]6[C@@H]5CC[C@]5(C)[C@@H](C7=CC(=O)OC7)CC[C@]65O)C4)O[C@@H]3C)O[C@@H]2C)C[C@H](O)[C@@H]1O` [digitoxin], the “impairment of global growth” value [1] was “digoxin<digitoxin<ouabain<Compound 2”.
